# Assay results published in patent publication US20100190849A1, “Novel Clerodanes and Methods for Repelling Arthropods” (priority 2006, published 2010).
# Marks after values point to notes of the source that are not given here.
# Key:
# Assay in all cases: Multiple-choice digging bioassay, fire ant workers
# Format in all cases: in vivo
# [1] = test system: hybrid (S. invicta×S. richteri)
# Protocol: (§1) The repellency of the two terpenoids, callicarpenal and intermedeol, against workers of red imported fire ants, Solenopsis invicta Buren, black imported fire ants, Solenopsis rickeri Forel, and a hybrid of these two species was evaluated using multiple-choice digging bioassays (Tables 9 & 10). […] Callicarpenal and intermedeol were compared with octanoic acid, a known fire ant repellant, at the 25.00 ppm level using two-choice digging bioassays (FIGS. 3 and 4).
# (§2) Ants: Two Solenopsis invicta colonies were collected in Sharkey County, Mississippi, and two Solenopsis richteri colonies were collected in Granada County, Mississippi. Two colonies of the hybrid (S. invicta×S. richteri) colony were collected in Sunflower County, Mississippi. Fire ant mounds were shoveled and placed in 19-L plastic buckets. The inside wall of the bucket was then coated with baby powder (Cumberland Swan Holdings, Inc., Smyrna, Tenn.) to prevent ant escape. Following the water-drip method developed by Bank et al. (Banks, W. A., et al., Techniques for collecting, rearing, and handling imported fire ants, USDA SEA AATS-S-21 (1981)), ants were separated and then placed in a 44.5×60.0×13.0 cm plastic tray with inside walls coated with Fluon® (Ag Fluoropolymers, Chadds Ford, Pa.). Distilled water and 15% (w/v) sucrose water solution in separated test tubes which were plugged with cotton balls were placed in the trays. Heliocoverpa zea (Boddie) and tobacco budworm, Heliothis virescens (Fabricius) pupae were used as food sources. Inside each tray were one to three 14.0×2.0 cm Petri dishes with 1.0 cm of hardener dental plaster (Castone®; Dentsply International Inc. York, Pa.) on the bottom. Also, in the center of the Petri dish was a 5.0-cm diameter brood chamber. Two 8-mm access holes were made on the wall of the petri dish above the dental plaster. The Petri dish lid was painted black (1302 Gloss Black Spray Enamel, Louisville, Ky.)to block the light. All colonies were maintained at 22-25° C.
# (§3) Fire ant workers dug and removed sand from the tube through the entry hole. The differences in the amount of removed sand among treated and control tubes were used to evaluate chemical repellency. Four 2 ml centrifuge tubes were mounted under a 14.0×2.3 cm Petri dish using glue (Arrow Fastener Co., inc., Saddle Brook, N.J.). Tubes were 5.0 cm away from the center of the Petri dish and at equal distance from each other. A 3-mm diameter access hole was drilled for each centrifuge tube, which went through the bottom of the Petri dish and the cap of the tube. The inner side of the Petri dish was coated with Fluon. Three concentrations of a test compound and one control were set up in each apparatus. Six concentrations, including […], 6.25, 12.50, and 25.00 ppm, were tested in two separated bioassays for each species and hybrid; however three more concentrations of callicarpenal, 50.00, 100.00, and […], were tested for S. invicta. Sand (Premium Play Sand, Plassein International, Longview, Tex.) was first sieved through a ™35 U.S.A. standard testing sieve (Thomas Scientific, Swedesboro, N.J.) and then washed with distilled water and dried at 350° C. for 12 h. A 3 ml dichloromethane solution of callicarpenal or intermedeol was mixed with 30 g sand in an aluminum pan. The sand was stirred every 2 min to facilitate the evaporation of the solvent under a fume hood. After dichloromethane evaporated (5 minutes), 1.92 ml distilled water was added and mixed with sand. Sand in the control tube was treated only with dichloromethane. In each tube a mean (±SD) 2.78 g (±0.06 g) wet sand was added. There was no open space inside the tube. Locations of each concentration were randomized. Fifty fire ant workers were introduced into the center of the Petri Dish. The experiment was conducted at 22±0.8° C. (mean±SD) temperature and 45.4%±11.87% relative humidity. After 24 h, sand in each vial was collected, dried at 150° C. for at least 4 hour, and weighed. […]
# [2] = test system: red imported fire ants, Solenopsis invicta Buren
# Protocol: as §1, §2, §3
# [3] = test system: black imported fire ants, Solenopsis richteri Forel
# Protocol: as §1, §2, §3
compound,measurement,setting,value
"C=C(C)C1CCC2(C)CCCC(C)(O)C2C1 [intermedeol, (4S,5S,7R,10S)-eudesm-11-en-4-ol]","Sand removed (SE), mean weight of sand removed by ants 24 h after release","[1]; Hybrid colony 1, Exp. 23, 0.75 ppm",0.43 (0.15) g
same,"Sand removed (SE), mean weight of sand removed by ants 24 h after release","[1]; Hybrid colony 1, Exp. 23, 1.50 ppm",0.10 (0.03)* g
same,"Sand removed (SE), mean weight of sand removed by ants 24 h after release","[1]; Hybrid colony 1, Exp. 23, 3.15 ppm",0.10 (0.03)* g
same,"Sand removed (SE), mean weight of sand removed by ants 24 h after release","[1]; Hybrid colony 1, Exp. 24, 6.25 ppm",0.45 (0.08)* g
same,"Sand removed (SE), mean weight of sand removed by ants 24 h after release","[1]; Hybrid colony 1, Exp. 24, 12.50 ppm",0.37 (0.04)* g
same,"Sand removed (SE), mean weight of sand removed by ants 24 h after release","[1]; Hybrid colony 1, Exp. 24, 25.00 ppm",0.20 (0.09)* g
same,"Sand removed (SE), mean weight of sand removed by ants 24 h after release","[1]; Hybrid colony 2, Exp. 25, 0.75 ppm",0.34 (0.14) g
same,"Sand removed (SE), mean weight of sand removed by ants 24 h after release","[1]; Hybrid colony 2, Exp. 25, 1.50 ppm",0.25 (0.10) g
same,"Sand removed (SE), mean weight of sand removed by ants 24 h after release","[1]; Hybrid colony 2, Exp. 25, 3.15 ppm",0.28 (0.09) g
same,"Sand removed (SE), mean weight of sand removed by ants 24 h after release","[1]; Hybrid colony 2, Exp. 26, 6.25 ppm",0.20 (0.08)* g
same,"Sand removed (SE), mean weight of sand removed by ants 24 h after release","[1]; Hybrid colony 2, Exp. 26, 12.50 ppm",0.10 (0.04)* g
same,"Sand removed (SE), mean weight of sand removed by ants 24 h after release","[1]; Hybrid colony 2, Exp. 26, 25.00 ppm",0.04 (0.01)* g
same,"Sand removed (SE), mean weight of sand removed by ants 24 h after release","[2]; S. invicta colony 1, Exp. 15, 0.75 ppm",0.56 (0.06) g
same,"Sand removed (SE), mean weight of sand removed by ants 24 h after release","[2]; S. invicta colony 1, Exp. 15, 1.50 ppm",0.36 (0.09)* g
same,"Sand removed (SE), mean weight of sand removed by ants 24 h after release","[2]; S. invicta colony 1, Exp. 15, 3.15 ppm",0.20 (0.06)* g
same,"Sand removed (SE), mean weight of sand removed by ants 24 h after release","[2]; S. invicta colony 1, Exp. 16, 6.25 ppm",0.66 (0.15)* g
same,"Sand removed (SE), mean weight of sand removed by ants 24 h after release","[2]; S. invicta colony 1, Exp. 16, 12.50 ppm",0.25 (0.13)* g
same,"Sand removed (SE), mean weight of sand removed by ants 24 h after release","[2]; S. invicta colony 1, Exp. 16, 25.00 ppm",0.18 (0.09)* g
same,"Sand removed (SE), mean weight of sand removed by ants 24 h after release","[2]; S. invicta colony 2, Exp. 17, 0.75 ppm",0.44 (0.10)* g
same,"Sand removed (SE), mean weight of sand removed by ants 24 h after release","[2]; S. invicta colony 2, Exp. 17, 1.50 ppm",0.35 (0.08)* g
same,"Sand removed (SE), mean weight of sand removed by ants 24 h after release","[2]; S. invicta colony 2, Exp. 17, 3.15 ppm",0.35 (0.12)* g
same,"Sand removed (SE), mean weight of sand removed by ants 24 h after release","[2]; S. invicta colony 2, Exp. 18, 6.25 ppm",0.17 (0.08)* g
same,"Sand removed (SE), mean weight of sand removed by ants 24 h after release","[2]; S. invicta colony 2, Exp. 18, 12.50 ppm",0.02 (0.01)* g
same,"Sand removed (SE), mean weight of sand removed by ants 24 h after release","[2]; S. invicta colony 2, Exp. 18, 25.00 ppm",0.04 (0.01)* g
same,"Sand removed (SE), mean weight of sand removed by ants 24 h after release","[3]; S. richteri colony 1, Exp. 19, 0.75 ppm",0.10 (0.06) g
same,"Sand removed (SE), mean weight of sand removed by ants 24 h after release","[3]; S. richteri colony 1, Exp. 19, 1.50 ppm",0.46 (0.18) g
same,"Sand removed (SE), mean weight of sand removed by ants 24 h after release","[3]; S. richteri colony 1, Exp. 19, 3.15 ppm",0.24 (0.11) g
same,"Sand removed (SE), mean weight of sand removed by ants 24 h after release","[3]; S. richteri colony 1, Exp. 20, 6.25 ppm",0.16 (0.10)* g
same,"Sand removed (SE), mean weight of sand removed by ants 24 h after release","[3]; S. richteri colony 1, Exp. 20, 12.50 ppm",0.07 (0.04)* g
same,"Sand removed (SE), mean weight of sand removed by ants 24 h after release","[3]; S. richteri colony 1, Exp. 20, 25.00 ppm",0.04 (0.01)* g
same,"Sand removed (SE), mean weight of sand removed by ants 24 h after release","[3]; S. richteri colony 2, Exp. 21, 0.75 ppm",0.16 (0.12) g
same,"Sand removed (SE), mean weight of sand removed by ants 24 h after release","[3]; S. richteri colony 2, Exp. 21, 1.50 ppm",0.26 (0.17) g
same,"Sand removed (SE), mean weight of sand removed by ants 24 h after release","[3]; S. richteri colony 2, Exp. 21, 3.15 ppm",0.17 (0.16) g
same,"Sand removed (SE), mean weight of sand removed by ants 24 h after release","[3]; S. richteri colony 2, Exp. 22, 6.25 ppm",0.02 (0.01)* g
same,"Sand removed (SE), mean weight of sand removed by ants 24 h after release","[3]; S. richteri colony 2, Exp. 22, 12.50 ppm",0.14 (0.07)* g
same,"Sand removed (SE), mean weight of sand removed by ants 24 h after release","[3]; S. richteri colony 2, Exp. 22, 25.00 ppm",0.02 (0.02)* g
